Laboratory results taken from patent publication US11091421B2, “Benzene fused heterocyclic derivative and pharmaceutical composition comprising the same” (TAIWANJ PHARMACEUTICALS CO., LTD., priority 2017, dated 2021).

Target: autotaxin (Homo sapiens, UniProt Q13822)
Experiment: Autotaxin inhibitor screening assay (phosphodiesterase activity, p-nitrophenol cleaved from bis-(p-nitrophenyl) phosphate, absorbance 410 nm)
Format: biochemical
Conditions: BNPP 3 mM, pH 9.0, 37° C., 30 minutes; for inhibition at 30 µM: pH 9, compound at 30 μM, read-out: Inhibition
Experimental: As described above, the compounds in the present disclosure have the effect of inhibiting the activity of autotaxin, and can be used as autotaxin inhibitors. One method for inhibiting activity of autotaxin in environment is administering to the environment an effective amount of the compound of Formula (I). Please refer to the following experiment, the phosphodiesterase activity of autotaxin was measured using the p-nitrophenol that is a yellow product cleaved by autotaxin from the bis-(p-nitrophenyl) phosphate. Compound samples (10 μl) were incubated with autotaxin (10 μl) in a final volume of 200 μl assay buffer (5 mM CaCl2, 50 mM Tris-HCl, pH 9.0) containing bis-(p-nitrophenyl) phosphate (BNPP) at a final concentration of 3 mM at 37° C. After 30 minutes, absorbance at 410 nm of the reacted solution was measured. The percent inhibition for each test article (TA) (compound) was determined using the following equation. % Inhibition=(O.D.vehicle−O.D.TA)/O.D.vehicle×100

| SMILES | inhibition at 30 µM | Inhibition (compound at 30 μM) |
| --- | --- | --- |
| O=C(O)c1ccc(CC2CCc3cc(OCCc4ccc(F)cc4)ccc3C2=O)cc1 (centres unmarked) [Compound 51] | > 80% | – |
| O=C(O)c1cc(CC2CCc3cc(OCCc4cc(F)ccc4F)ccc3C2=O)ccc1O (centres unmarked) [Compound 52] | 50 to 80% | – |
| O=C(NO)c1ccc(COc2ccc3c(c2)C/C(=C\c2cc(Cl)cc(Cl)c2)C3=O)cc1 [Compound 128] | 50 to 80% | – |

Results, then the compound that gave them:

| inhibition at 30 µM | Inhibition (compound at 30 μM) | SMILES |
| --- | --- | --- |
| < 50% | – | O=C(Cc1ccc(F)c(F)c1)Nc1ccc(CC2CCc3cc(O)ccc3C2=O)cc1 (centres unmarked) [Compound 69] |
| – | B (50%~80% inhibition at 30 μM) | O=C1c2cc(O)ccc2CC1CC1CCN(C(=O)OCc2cc(Cl)cc(Cl)c2)CC1 (centres unmarked) [Compound 119] |
